Assay results from BigSolDB 2.1.

CC1(C)[C@H](C(=O)O)N2C(=O)[C@@H](NC(=O)Cc3ccccc3)[C@H]2S1=O (stereo partly drawn)
Conditions	solubility (mole fraction)
in MIBK, 278.15 K	0.00173
in MIBK, 287.85 K	0.00184
in MIBK, 295.15 K	0.00201
in MIBK, 297.95 K	0.00213
in MIBK, 303.35 K	0.00227
in MIBK, 308.05 K	0.00238
in MIBK, 313.35 K	0.00262
in MIBK, 317.65 K	0.00278
in MIBK, 323.75 K	0.00316
in ethyl acetate, 273.15 K	0.00211
in ethyl acetate, 278.15 K	0.00222
in ethyl acetate, 283.25 K	0.00227
in ethyl acetate, 288.15 K	0.00233
in ethyl acetate, 292.75 K	0.00256
in ethyl acetate, 298.55 K	0.0028
in ethyl acetate, 303.15 K	0.00316
in ethyl acetate, 307.45 K	0.00338
in ethyl acetate, 312.85 K	0.00383
in ethyl acetate, 317.65 K	0.0044
in ethyl acetate, 321.25 K	0.00486
in n-butyl acetate, 273.15 K	0.000603
in n-butyl acetate, 278.25 K	0.000678
in n-butyl acetate, 281.95 K	0.000735
in n-butyl acetate, 287.65 K	0.000825
in n-butyl acetate, 292.55 K	0.000979
in n-butyl acetate, 297.35 K	0.0011
in n-butyl acetate, 302.95 K	0.00134
in n-butyl acetate, 307.65 K	0.00151
in n-butyl acetate, 312.65 K	0.00166
in n-butyl acetate, 317.65 K	0.00192
in toluene, 283.15 K	2.74e-05
in toluene, 288.35 K	3.68e-05
in toluene, 293.95 K	5.26e-05
in toluene, 298.15 K	6.12e-05
in toluene, 303.45 K	6.97e-05
in toluene, 311.65 K	8.7e-05
in toluene, 316.85 K	0.000105
in toluene, 323.65 K	0.000113
